ChEMBL document CHEMBL3608282 (Bioorg Med Chem Lett, 2015)

Columns and labels:
CCRF-CEM = assay: Cytotoxicity against human CEM cells; type: cell-based
Vero = assay: Cytotoxicity against african green monkey Vero cells; type: cell-based; conditions: chlorocebus sabaeus
[1] = Therapeutic index, ratio of CC50 for PBMC (unknown origin) to EC50 for HCV genotype 1b; conditions: PBMC (CC50) versus HCV genotype 1b (EC50)
[2] = Therapeutic index, ratio of CC50 for human HuH7 cells to EC50 for HCV genotype 1b; type: cell-based, Huh-7; conditions: HuH7 cells (CC50) versus HCV genotype 1b (EC50)
[3] = Therapeutic index, ratio of CC50 for human CEM cells to EC50 for HCV genotype 1b; type: cell-based, CCRF-CEM; conditions: CEM cells (CC50) versus HCV genotype 1b (EC50)
PBMC = assay: Cytotoxicity against PBMC (unknown origin); type: cell-based
[4] = Therapeutic index, ratio of CC50 for african green monkey Vero cells to EC50 for HCV genotype 1b; type: cell-based; conditions: Vero cells (CC50) versus HCV genotype 1b (EC50)
Hepatitis C virus [5] = assay: Antiviral activity against HCV genotype 1b infected in human HuH7 cells assessed as reduction in viral RNA replication; type: functional, organism-based, Hepacivirus hominis; conditions: Huh-7
Hepatitis C virus [6] = assay: Resistance index, ratio of EC50 for HCV genotype 1b expressing NS5A L31V mutant infected in human HuH7 cells to EC50 for wild type HCV genotype 1b infected in human HuH7 cells; type: functional, Hepacivirus hominis, Huh-7
Hepatitis C virus [7] = assay: Antiviral activity against wild type HCV genotype 1b infected in human HuH7 cells assessed as reduction in viral RNA replication; type: functional, organism-based, Hepacivirus hominis; conditions: Huh-7
Hepatitis C virus [8] = assay: Antiviral activity against HCV genotype 2a; type: functional, organism-based, Hepacivirus hominis
Hepatitis C virus [9] = assay: Antiviral activity against HCV genotype 1b expressing NS5A Y93H mutant infected in human HuH7 cells assessed as reduction in viral RNA replication; type: functional, organism-based, Hepacivirus hominis; conditions: Huh-7
Hepatitis C virus [10] = assay: Antiviral activity against HCV genotype 1a; type: functional, organism-based, Hepacivirus hominis; conditions: subtype 1a
Hepatitis C virus [11] = assay: Antiviral activity against HCV genotype 1b expressing NS5A L31V mutant infected in human HuH7 cells assessed as reduction in viral RNA replication; type: functional, organism-based, Hepacivirus hominis; conditions: Huh-7
[12] = Cytotoxicity against human HuH7 cells; type: cell-based; conditions: huh-7

Row | Compound | CC50 (CCRF-CEM) [nM] | CC50 (Vero) [nM] | selectivity ratio [1] | selectivity ratio [2] | selectivity ratio [3] | CC50 (PBMC) [nM] | selectivity ratio [4] | EC50 (Hepatitis C virus [5]) [nM] | EC90 (Hepatitis C virus [5]) [nM] | Ratio EC50 (Hepatitis C virus [6]) | EC50 (Hepatitis C virus [7]) [nM] | EC50 (Hepatitis C virus [8]) [nM] | EC50 (Hepatitis C virus [9]) [nM] | EC50 (Hepatitis C virus [10]) [nM] | EC50 (Hepatitis C virus [11]) [nM] | CC50 [12] [nM]
1 | COC(=O)N[C@@H](CS(=O)(=O)Cc1ccccc1)C(=O)N1CCC[C@H]1c1ncc(-c2ccc(-c3ccc(-c4cnc([C@@H]5CCCN5C(=O)[C@@H](NC(=O)OC)C(C)C)[nH]4)cc3)cc2)[nH]1 | > 100000 | > 100000 | > 1e+06 | > 1e+06 | > 1e+06 | 21000 | > 1e+06 | 0.02 | 0.1 |  |  |  |  |  |  | 
2 | COC(=O)N[C@@H](CSCc1ccccc1)C(=O)N1CCC[C@H]1c1ncc(-c2ccc(-c3ccc(-c4cnc([C@@H]5CCCN5C(=O)[C@@H](NC(=O)OC)C(C)C)[nH]4)cc3)cc2)[nH]1 | 82000 | > 100000 | > 1e+06 | > 1e+06 | > 1e+06 | > 100000 | > 1e+06 | 0.02 | 0.032 | >3 | 0.1 | 0.039 | > 0.33 | 0.1 | 0.39 | > 330000
3 | COC(=O)N[C@@H](CSC(C)(C)C)C(=O)N1CCC[C@H]1c1ncc(-c2ccc(-c3ccc(-c4cnc([C@@H]5CCCN5C(=O)[C@@H](NC(=O)OC)C(C)C)[nH]4)cc3)cc2)[nH]1 | 10000 | 39000 | > 1e+06 | > 1e+06 | > 1e+06 | 18000 | > 1e+06 | 0.03 | 0.1 |  | 0.14 | 0.055 | ≥ 0.33 | 0.14 | 0.072 | > 330000
4 | COC(=O)N[C@@H](C[S+]([O-])Cc1ccccc1)C(=O)N1CCC[C@H]1c1ncc(-c2ccc(-c3ccc(-c4cnc([C@@H]5CCCN5C(=O)[C@@H](NC(=O)OC)C(C)C)[nH]4)cc3)cc2)[nH]1 (stereo partly specified) | 11000 | 11000 | > 1e+06 | > 1e+06 | > 1e+06 | 42000 | > 1e+06 | 0.1 | 0.3 |  |  |  |  |  |  | 
5 | COC(=O)N[C@@H](CSC)C(=O)N1CCC[C@H]1c1ncc(-c2ccc(-c3ccc(-c4cnc([C@@H]5CCCN5C(=O)[C@@H](NC(=O)OC)C(C)C)[nH]4)cc3)cc2)[nH]1 | 11000 | 18000 | > 1e+06 | > 1e+06 | > 1e+06 | 31000 | > 1e+06 | 0.061 | 0.1 |  |  |  |  |  |  | 
6 | COC(=O)N[C@H](C(=O)N1CCC[C@H]1c1nc(-c2ccc(-c3ccc(-c4c[nH]c([C@@H]5CCCN5C(=O)[C@@H](NC(=O)OC)C(C)C)n4)cc3)cc2)c[nH]1)C(C)C |  |  |  |  |  |  |  | 0.004 | 0.02 |  | 0.048 | 0.024 | 0.18 | 0.048 | 0.035 | > 15000
7 | COC(=O)N[C@@H](CCSC)C(=O)N1CCC[C@H]1c1ncc(-c2ccc(-c3ccc(-c4cnc([C@@H]5CCCN5C(=O)[C@@H](NC(=O)OC)C(C)C)[nH]4)cc3)cc2)[nH]1 | 11000 | 40000 | > 1e+06 | > 1e+06 | > 1e+06 | 41000 | > 1e+06 | 0.03 | 0.1 |  | 0.059 | 0.027 | > 0.11 | 0.059 | 0.05 | > 330000
